Results taken from the supplement of paper PMC11208160.

test: recombinant barcode read abundance after kanamycin selection (control-corrected) (log10(CPM+1)); higher = more efficient recombination; sequences stand for … in AGTGCAGAGAAAATCGGCCAGTTTTCTCTGCCTGCAGTCCGCATGCCGT…AGATTTATGCAGCGGACTGCCTTTCTCCCAAAGTGATAAACCGGACAGTATCATGGACCGGTTTTCCCGGTAATCCGTATTTGCAAGGTTGGTTTCACT; site = the 11-nt target
Method in brief: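 Two replicates per condition were plated: chloramphenicol/ampicillin LB agar for the control, and chloramphenicol/ampicillin/kanamycin with 0.1 mM IPTG for selection. The pooled E. coli screen behind them paired targets with IS621 bridge RNA target-binding loops. Recombination efficiency is expressed from averaged, control-corrected barcode counts per million at recombinant junctions, as log10(CPM+1).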
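Further: IS621 recombinase and bridge RNA in Escherichia coli cells.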

Row | Sequence | recombinant barcode read abundance (log10)
1 | GACATATCTTGGGTTCTAACCTGTTGCTG (site GACATATCTTG) | 0.165
2 | GACCAGCCTTGGGTTCTAACCTGTTGCCT (site GACCAGCCTAA) | 0.277
3 | GACCAGCCTTGGGTTCTAACCTGTTGCCT (site GACCAGCCTAC) | 0.0691
4 | GACCAGCCTTGGGTTCTAACCTGTTGCCT (site GACCAGCCTAG) | 0.98
5 | GACCAGCCTTGGGTTCTAACCTGTTGCCT (site GACCAGCCTAT) | 0.359
6 | GACCAGTCTTGGGTTCTAACCTGTTGCGG (site GACCAGTCTCC) | 1.97
7 | GACCAGTCTTGGGTTCTAACCTGTTGCGG (site GTCCAGGCTCC) | 0.128
8 | GACCGCTCTTGGGTTCTAACCTGTTGCTA (site GACCGCTCTTA) | 1.2
9 | GACCGCTCTTGGGTTCTAACCTGTTGCTA (site GTCAGCTCTTA) | 0.37
10 | GACCGTCCTTGGGTTCTAACCTGTTGCCA (site GACCGTCCTTG) | 0.761
11 | GACCGTCCTTGGGTTCTAACCTGTTGCCA (site GACTGTCCTTC) | 0.472
12 | GACCGTCCTTGGGTTCTAACCTGTTGCTT (site GACCGTCCTAA) | 1.1
13 | GACCGTCCTTGGGTTCTAACCTGTTGCTT (site GACCGTCCTAC) | 0.447
14 | GACCGTCCTTGGGTTCTAACCTGTTGCTT (site GACCGTCCTAG) | 0.252
15 | GACCGTCCTTGGGTTCTAACCTGTTGCTT (site GACCGTCCTAT) | 1.19
16 | GACCGTGCTTGGGTTCTAACCTGTTGCCT (site GACCGAGCTAG) | 0.0758
17 | GACCGTGCTTGGGTTCTAACCTGTTGCCT (site GACCGCGCTAG) | 0.103
18 | GACCGTGCTTGGGTTCTAACCTGTTGCCT (site GACCGGGCTAG) | 0.268
19 | GACCGTGCTTGGGTTCTAACCTGTTGCCT (site GACCGTGCTAG) | 1.38
20 | GACCTACCTTGGGTTCTAACCTGTTGCAG (site GACCTACCTCT) | 2.18
21 | GACCTACCTTGGGTTCTAACCTGTTGCAG (site GACCTCCCTCA) | 0.136
22 | GACCTATCTTGGGTTCTAACCTGTTGCCT (site GACCTATCTAG) | 1.39

Row | Sequence | recombinant barcode read abundance (log10)
23 | GACCTATCTTGGGTTCTAACCTGTTGCCT (site TGTGCTACTGT) | 0.213
24 | GACCTCCCTTGGGTTCTAACCTGTTGCTG (site GACCTACCTCT) | 0.219
25 | GACCTCCCTTGGGTTCTAACCTGTTGCTG (site GACCTCCCTCA) | 2.16
26 | GACGCTTCTTGGGTTCTAACCTGTTGCAT (site GACGCAACTAT) | 1
27 | GACGCTTCTTGGGTTCTAACCTGTTGCAT (site GACGCTTCTAT) | 0.254
28 | GACGTAACTTGGGTTCTAACCTGTTGCAG (site AGGAAGGCTTG) | 0.459
29 | GACGTAACTTGGGTTCTAACCTGTTGCAG (site GACGTAACTCT) | 1.15
30 | GACGTAACTTGGGTTCTAACCTGTTGCCT (site GAAGTAACTAG) | 0.0422
31 | GACGTAACTTGGGTTCTAACCTGTTGCCT (site GACGTAACTAG) | 0.508
32 | GACGTAACTTGGGTTCTAACCTGTTGCCT (site GAGGTAACTAG) | 0.0292
33 | GACGTAACTTGGGTTCTAACCTGTTGCCT (site GATGTAACTAG) | 0.163
34 | GACTAGTCTTGGGTTCTAACCTGTTGCAG (site CGGGGCCCTAA) | 0.156
35 | GACTAGTCTTGGGTTCTAACCTGTTGCAG (site GACTAGTCTCT) | 2.22
36 | GACTATCCTTGGGTTCTAACCTGTTGCCG (site ACTATGACTAA) | 0.0127
37 | GACTATCCTTGGGTTCTAACCTGTTGCCG (site GACTATCCTCG) | 0.739
38 | GACTATGCTTGGGTTCTAACCTGTTGCCT (site GACTATGCTAG) | 0.461
39 | GACTATGCTTGGGTTCTAACCTGTTGCCT (site GCCTATGCTAG) | 0.291
40 | GACTATGCTTGGGTTCTAACCTGTTGCCT (site GGCTATGCTAG) | 0.0633
41 | GACTATGCTTGGGTTCTAACCTGTTGCCT (site GTCTATGCTAG) | 0.00989
42 | GACTATTCTTGGGTTCTAACCTGTTGCCT (site GAATATTCTAG) | 0.0378
43 | GACTATTCTTGGGTTCTAACCTGTTGCCT (site GACTATTCTAG) | 0.212
44 | GACTATTCTTGGGTTCTAACCTGTTGCCT (site GAGTATTCTAG) | 0.106

Row | Sequence | recombinant barcode read abundance (log10)
45 | GACTATTCTTGGGTTCTAACCTGTTGCCT (site GATTATTCTAG) | 0.178
46 | GACTCTACTTGGGTTCTAACCTGTTGCTT (site GAATCTACTAA) | 0.0131
47 | GACTCTACTTGGGTTCTAACCTGTTGCTT (site GACTCTACTAA) | 0.65
48 | GACTCTACTTGGGTTCTAACCTGTTGCTT (site GAGTCTACTAA) | 0.068
49 | GACTCTACTTGGGTTCTAACCTGTTGCTT (site GATTCTACTAA) | 0.0521
50 | GACTCTCCTTGGGTTCTAACCTGTTGCAT (site GACTCTCCTAA) | 0.00987
51 | GACTCTCCTTGGGTTCTAACCTGTTGCAT (site GACTCTCCTAC) | 1.45
52 | GACTCTCCTTGGGTTCTAACCTGTTGCAT (site GACTCTCCTAG) | 0.186
53 | GACTCTCCTTGGGTTCTAACCTGTTGCAT (site GACTCTCCTAT) | 0.387
54 | GACTCTCCTTGGGTTCTAACCTGTTGCGT (site GACTCTCCTAA) | 0.103
55 | GACTCTCCTTGGGTTCTAACCTGTTGCGT (site GACTCTCCTAC) | 1.75
56 | GACTCTCCTTGGGTTCTAACCTGTTGCGT (site GACTCTCCTAG) | 0
57 | GACTCTCCTTGGGTTCTAACCTGTTGCGT (site GACTCTCCTAT) | 0.321
58 | GACTGCCCTTGGGTTCTAACCTGTTGCCT (site GACTGCCCTAG) | 0.166
59 | GACTGCCCTTGGGTTCTAACCTGTTGCCT (site GCCTGCCCTAG) | 0.164
60 | GACTGCCCTTGGGTTCTAACCTGTTGCCT (site GGCTGCCCTAG) | 0.0269
61 | GACTGCCCTTGGGTTCTAACCTGTTGCCT (site GTCTGCCCTAG) | 0.129
62 | GACTGGCCTTGGGTTCTAACCTGTTGCTT (site GACTGGCCTAA) | 0.389
63 | GACTGGCCTTGGGTTCTAACCTGTTGCTT (site GACTGGGCTCA) | 0.154
64 | GACTTGACTTGGGTTCTAACCTGTTGCCT (site GACTTGACTAG) | 1.13
65 | GACTTGACTTGGGTTCTAACCTGTTGCCT (site GACTTGCCTAG) | 0.0736
66 | GACTTGACTTGGGTTCTAACCTGTTGCCT (site GACTTGGCTAG) | 0.171

Row | Sequence | recombinant barcode read abundance (log10)
67 | GACTTGACTTGGGTTCTAACCTGTTGCCT (site GACTTGTCTAG) | 0.0657
68 | GACTTGTCTTGGGTTCTAACCTGTTGCCT (site GACTTGACTAG) | 0.0686
69 | GACTTGTCTTGGGTTCTAACCTGTTGCCT (site GACTTGCCTAG) | 0.0458
70 | GACTTGTCTTGGGTTCTAACCTGTTGCCT (site GACTTGGCTAG) | 0.0443
71 | GACTTGTCTTGGGTTCTAACCTGTTGCCT (site GACTTGTCTAG) | 1.41
72 | GACTTTCCTTGGGTTCTAACCTGTTGCAT (site GACTTACCTAT) | 0.01
73 | GACTTTCCTTGGGTTCTAACCTGTTGCAT (site GACTTCCCTAT) | 0.272
74 | GACTTTCCTTGGGTTCTAACCTGTTGCAT (site GACTTGCCTAT) | 0.0607
75 | GACTTTCCTTGGGTTCTAACCTGTTGCAT (site GACTTTCCTAT) | 0.101
76 | GAGAACACTTGGGTTCTAACCTGTTGCCT (site AAGAACACTAG) | 1.09
77 | GAGAACACTTGGGTTCTAACCTGTTGCCT (site CAGAACACTAG) | 0.439
78 | GAGAACACTTGGGTTCTAACCTGTTGCCT (site GAGAACACTAG) | 2.01
79 | GAGAACACTTGGGTTCTAACCTGTTGCCT (site TAGAACACTAG) | 0.852
80 | GAGAAGCCTTGGGTTCTAACCTGTTGCCT (site AAGAAGCCTAG) | 1.17
81 | GAGAAGCCTTGGGTTCTAACCTGTTGCCT (site CAGAAGCCTAG) | 0.409
82 | GAGAAGCCTTGGGTTCTAACCTGTTGCCT (site GAGAAGCCTAG) | 2.12
83 | GAGAAGCCTTGGGTTCTAACCTGTTGCCT (site TAGAAGCCTAG) | 0.639
84 | GAGAGAGCTTGGGTTCTAACCTGTTGCAT (site GAGAGAGCTAT) | 1.41
85 | GAGAGAGCTTGGGTTCTAACCTGTTGCAT (site GAGCGAGCTAT) | 0.193
86 | GAGAGAGCTTGGGTTCTAACCTGTTGCAT (site GAGGGAGCTAT) | 0.0621
